These molecules were tested on Respiratory Syncytial Virus (assay: In vitro screening for activity against Respiratory Syncytial Virus (MTT tetrazolium colorimetric assay, HeLa cells)). Settings: protection against RSV cytopathology in HeLa cells, 7 days after infection; pEC50 = −log of EC50 in molar units.
Format: cell-based
Source text: The percent protection against cytopathology caused by viruses (antiviral activity or EC50) achieved by tested compounds and their cytotoxicity (CC50) are both calculated from dose-response curves. The selectivity of the antiviral effect is represented by the selectivity index (SI), calculated by dividing the CC50 (cytotoxic dose for 50% of the cells) by the EC50 (antiviral activity for 50% of the cells). The tables in the above experimental part list the category to which each of the prepared compounds belong. Compounds belonging to activity category “A” have an pEC50 (−log of EC50 when expressed in molar units) equal to or more than 7. Compounds belonging to activity category “B” have a pEC50 value between 6 and 7.
Automated tetrazolium-based […] assays were used for determination of EC50 and CC50 of test compounds. Flat-bottom, 96-well plastic microtiter trays were filled with 180 μl of Eagle's Basal Medium, supplemented with 5% FCS (0% for FLU) and 20 mM Hepes buffer. Subsequently, stock solutions (7.8× final test concentration) of compounds were added in 45 μl volumes to a series of triplicate wells so as to allow simultaneous evaluation of their effects on virus- and mock-infected cells. Five five-fold dilutions were made directly in the microtiter trays using a robot system. Untreated virus controls, and HeLa cell controls were included in each test. Approximately 100 TCID50 of Respiratory Syncytial Virus was added to two of the three rows in a volume of 50 μl. The same volume of medium was added to the third row to measure the cytotoxicity of the compounds at the same concentrations as those used to measure the antiviral activity. After two hours of incubation, a suspension (4×10^5 cells/ml) of HeLa cells was added to all wells in a volume of 50 μl. The cultures were incubated at 37° C. in a 5% CO2 atmosphere. Seven days after infection the cytotoxicity and the antiviral activity was examined spectrophotometrically. To each well of the microtiter tray, 25 μl of a solution of MTT (3-(4,5-dimethylthiazol-2-yl)-2,5-diphenyltetrazolium bromide) was added. The trays were further incubated at 37° C. for 2 hours, after which the medium was removed from each cup. Solubilization of the formazan crystals was achieved by adding 100 μl 2-propanol. Complete dissolution of the formazan crystals were obtained after the trays have been placed on a plate shaker for 10 min. Finally, the absorbances were read in an eight-channel computer-controlled photometer (Multiskan MCC, Flow Laboratories) at two wavelengths (540 and 690 nm). The absorbance measured at 690 nm was automatically subtracted from the absorbance at 540 nm, so as to eliminate the effects of non-specific absorption.

Going from `Cc1ccc(O)c(Cn2c(NC3CCN(C)CC3)nc3ccc(C(=O)NCc4ccco4)cc32)n1` [Compound 119] to `COc1ccc(NCc2ccc3nc(NC4CCN(C)CC4)n(Cc4nc(C)ccc4O)c3c2)cc1F` [Compound 67], the Activity rises from 4.8 to 7.2.

Compared with `Cc1ccc(O)c(Cn2c(NC3CCN(C)CC3)nc3ccc(CNc4ccccc4Br)cc32)n1` [Compound 22], `Cc1ccc(O)c(Cn2c(NC3CCN(C)CC3)nc3ccc(CN(CCO)Cc4ccccc4)cc32)n1` [Compound 85] is lower in Activity: 7.9 for the first, 6.8 for the second.

Going from `Cc1ccc(NCc2ccc3nc(NC4CCN(C)CC4)n(Cc4nc(C)ccc4O)c3c2)c(Cl)c1` [Compound 73] to `Cc1ccc(O)c(Cn2c(NC3CCN(C)CC3)nc3ccc(CNc4ccc(Br)c(C)c4)cc32)n1` [Compound 68], the Activity rises from 7.1 to 7.2.

First: Cc1ccc(O)c(Cn2c(NC3CCN(C)CC3)nc3ccc(CNc4ccc(C(F)(F)F)cc4)cc32)n1 [Compound 71]
Second: Cc1ccc(O)c(Cn2c(NC3CCN(C)CC3)nc3ccc(CNc4ccc(CC#N)cc4)cc32)n1 [Compound 34]
The Activity of the first is lower: 7.2 for the first, 7.8 for the second.

Compared with `Cc1ccc(O)c(Cn2c(NC3CCN(C)CC3)nc3ccc(CN(Cc4ccccc4)c4ccccc4)cc32)n1` [Compound 80], `CCc1cc(Br)ccc1NCc1ccc2nc(NC3CCN(C)CC3)n(Cc3nc(C)ccc3O)c2c1` [Compound 74] is higher in Activity: 6.9 for the first, 7.1 for the second.

Going from `Cc1ccc(CCc2ccc3nc(NC4CCN(C)CC4)n(Cc4nc(C)ccc4O)c3c2)cc1` [Compound 84] to `CC(=O)c1cccc(NCc2ccc3nc(NC4CCN(C)CC4)n(Cc4nc(C)ccc4O)c3c2)c1` [Compound 19], the Activity rises from 6.8 to 7.9.

First: CC(=O)c1ccc(NCc2ccc3nc(NC4CCN(C)CC4)n(Cc4nc(C)ccc4O)c3c2)cc1 [Compound 17]
Second: Cc1ccc(O)c(Cn2c(NC3CCN(C)CC3)nc3ccc(CN(CC(=O)O)c4ccccc4)cc32)n1 [Compound 39]
The Activity of the first is higher: 8 for the first, 7.7 for the second.

First: Cc1ccc(O)c(Cn2c(NC3CCN(C)CC3)nc3ccc(CNc4ccc(Br)c(F)c4)cc32)n1 [Compound 69]
Second: Cc1ccc(O)c(Cn2c(NCCc3ccccc3)nc3ccc(CO)cc32)n1 [Compound 188]
The Activity of the first is higher: 7.2 for the first, 4.4 for the second.

Compared with `Cc1ccc(O)c(Cn2c(NC3CCN(CCN)CC3)nc3cc(CCc4ccccc4)ccc32)n1.Cl` [Compound 157], `Cc1ccc(O)c(Cn2c(NC3CCN(C)CC3)nc3ccc(CNc4cccc(Cl)c4)cc32)n1` [Compound 11] is higher in Activity: 7.9 for the first, 8.2 for the second.

Compared with `CCOC(=O)c1ccc(NCc2ccc3nc(NC4CCN(C)CC4)n(Cc4nc(C)ccc4O)c3c2)c(O)c1` [Compound 24], `Cc1cc(C)cc(NCc2ccc3c(c2)nc(NCC(O)CO)n3Cc2nc(C)ccc2O)c1` (stereo not shown) [Compound 180] is lower in Activity: 7.9 for the first, 5.6 for the second.

Going from `COc1ccc(NCc2ccc3nc(NC4CCN(C)CC4)n(Cc4nc(C)ccc4O)c3c2)cc1OC` [Compound 61] to `Cc1cc(C)c(NCc2ccc3nc(NC4CCN(C)CC4)n(Cc4nc(C)ccc4O)c3c2)c(C)c1` [Compound 96], the Activity falls from 7.3 to 6.6.

Going from “2-[6-[(1-ethylidene-3-methyl-penta-2,4-dienylamino)-methyl]-2-(1-methyl-piperidin-4-ylamino)-benzoimidazol-1-ylmethyl]-6-methyl-pyridin-3-ol [Compound 9]” to `Cc1cccc(NCc2ccc3c(c2)nc(NC2CCN(C)CC2)n3Cc2nc(C)ccc2O)c1` [Compound 130], the Activity falls from 8.3 to 4.6.

Work on `CCN(Cc1ccc2nc(NC3CCN(C)CC3)n(Cc3nc(C)ccc3O)c2c1)c1ccccc1` [Compound 62] yielded an Activity of 7.3.

Work on `Cc1ccc(O)c(Cn2c(NC3CCN(C)CC3)nc3ccc(C(=O)NCCc4ccccc4)cc32)n1` [Compound 136] yielded an Activity of less than 4.
`Cc1ccc(O)c(Cn2c(NC3CCN(C)CC3)nc3ccc(C(=O)NCc4ccccn4)cc32)n1` [Compound 134] was tested, and the Activity was less than 4.
In the case of `Cc1ccc(O)c(Cn2c(NC3CCN(C)CC3)nc3cc(C(=O)NCc4ccccn4)ccc32)n1` [Compound 135], the Activity is reported as less than 4.
